Our source for the Ki values is BindingDB's records for doi:10.1016/j.bmc.2012.11.004 (Romanian Academy, 2013).

pKi: −log10 of the molar value.

One test deals with Carbonic anhydrase 2 (Homo sapiens, UniProt P00918). The test is described as follows: Inhibition of human carbonic anhydrase-2.
Another test addresses Carbonic anhydrase 12 (Homo sapiens, UniProt O43570). The test is described as follows: Inhibition of human carbonic anhydrase-12.
Another test addresses Carbonic anhydrase 1 (Homo sapiens, UniProt P00915). The test is described as follows: Inhibition of human carbonic anhydrase-1.

Chain of Carbonic anhydrase 1 (P00915 whole entry): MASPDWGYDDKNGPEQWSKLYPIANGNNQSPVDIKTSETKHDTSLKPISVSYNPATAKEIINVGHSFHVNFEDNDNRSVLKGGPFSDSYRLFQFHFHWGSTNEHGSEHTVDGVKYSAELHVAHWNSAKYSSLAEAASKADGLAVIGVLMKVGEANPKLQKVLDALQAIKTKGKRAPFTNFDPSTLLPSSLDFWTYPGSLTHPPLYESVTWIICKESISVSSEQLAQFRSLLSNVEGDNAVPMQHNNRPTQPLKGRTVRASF
Chain of Carbonic anhydrase 12 (O43570 whole entry): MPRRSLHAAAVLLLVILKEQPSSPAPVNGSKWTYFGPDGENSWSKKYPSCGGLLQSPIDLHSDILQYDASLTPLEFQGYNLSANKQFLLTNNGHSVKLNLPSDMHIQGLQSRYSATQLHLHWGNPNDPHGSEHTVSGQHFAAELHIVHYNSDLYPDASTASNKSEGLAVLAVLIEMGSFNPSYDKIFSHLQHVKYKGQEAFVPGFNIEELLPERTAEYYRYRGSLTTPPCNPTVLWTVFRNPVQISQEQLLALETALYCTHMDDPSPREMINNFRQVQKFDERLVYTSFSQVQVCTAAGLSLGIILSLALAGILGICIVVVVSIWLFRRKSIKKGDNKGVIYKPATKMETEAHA

For the compound `NS(=O)(=O)Nc1ccc(NC(=O)Nc2ccccc2-c2ccccc2)cc1`, the pKi (in general, −log10 of the Ki, conventionally taken in molar units) at Carbonic anhydrase 2 is 6.07; on Carbonic anhydrase 12, 6.67.

Regarding `NS(=O)(=O)Nc1ccc(NC(=O)Nc2ccc(Cl)cc2)cc1`, the results for the negative-log Ki (pKi) on Carbonic anhydrase 2, at Carbonic anhydrase 1 and at Carbonic anhydrase 12 were 6.47, 5.47 and 7.57, respectively.

For `Cc1cc(Cl)ccc1NC(=O)Nc1ccc(NS(N)(=O)=O)cc1`, the values for the pKi at Carbonic anhydrase 1 and on Carbonic anhydrase 12 were 5.37 and 7.77, respectively.

Turning to `CCCCOc1ccc(NC(=O)Nc2ccc(NS(N)(=O)=O)cc2)cc1`, the results for the pKi at Carbonic anhydrase 2 and on Carbonic anhydrase 1 were 6.47 and 5.77, respectively.

Regarding `NS(=O)(=O)Nc1ccc(NC(=O)NCc2ccco2)cc1`, the negative logarithm of the Ki (pKi) was 5.18 on Carbonic anhydrase 1 and 7.96 on Carbonic anhydrase 12.

With `COc1ccc(NC(=O)Nc2ccc(NS(N)(=O)=O)cc2)c(C)c1`, the negative logarithm of the Ki (pKi) was 6.47 at Carbonic anhydrase 2, 5.47 on Carbonic anhydrase 1 and 7.47 on Carbonic anhydrase 12.

On to `COc1ccc(OC)c(NC(=O)Nc2ccc(NS(N)(=O)=O)cc2)c1`, for which, at Carbonic anhydrase 2, the pKi was 6.37.

As for `CC(C)c1ccccc1NC(=O)Nc1ccc(NS(N)(=O)=O)cc1`, the pKi at Carbonic anhydrase 2 is 6.17.

Turning to `NS(=O)(=O)Nc1ccc(NC(=O)NCc2ccccc2)cc1`, the values for the pKi on Carbonic anhydrase 2, on Carbonic anhydrase 1 and on Carbonic anhydrase 12 were 6.87, 5.57 and 8.05, respectively.

`NS(=O)(=O)Nc1ccc(NC(=O)NCCc2ccccc2)cc1`: the values for the negative logarithm of the Ki (pKi) at Carbonic anhydrase 2, on Carbonic anhydrase 1 and at Carbonic anhydrase 12 were 6.77, 5.57 and 8.05, respectively.

For the compound `NS(=O)(=O)Oc1ccc(NC(=O)NC23CC4CC(CC(C4)C2)C3)cc1`, the pKi on Carbonic anhydrase 2 was 6.37; on Carbonic anhydrase 12, 7.37.

Consider `NS(=O)(=O)Nc1ccc(NC(=O)NC2CCCCC2)cc1`, for which the pKi at Carbonic anhydrase 2 is 6.47; at Carbonic anhydrase 1 it was 5.37; on Carbonic anhydrase 12 it was 6.97.

Turning to `Cc1cc(C)cc(NC(=O)Nc2ccc(NS(N)(=O)=O)cc2)c1`, the pKi at Carbonic anhydrase 2 is 6.17.

Consider `CC(NC(=O)Nc1ccc(NS(N)(=O)=O)cc1)c1cccc2ccccc12` (stereo not given), for which the negative-log Ki (pKi) was 6.37 at Carbonic anhydrase 2 and 7.57 on Carbonic anhydrase 12.

Consider `COc1ccc(C)cc1NC(=O)Nc1ccc(NS(N)(=O)=O)cc1`, for which the pKi was 6.37 at Carbonic anhydrase 2 and 7.57 on Carbonic anhydrase 12.

Take `NS(=O)(=O)Nc1ccc(NC(=O)Nc2cccc([N+](=O)[O-])c2)cc1`: the negative-log Ki (pKi) at Carbonic anhydrase 2 is 6.37; at Carbonic anhydrase 1 it was 5.67; at Carbonic anhydrase 12 it was 8.05.
